Values of other authors, collected in patent US10159658B2, “Compositions comprising statins, biguanides and further agents for reducing cardiometabolic risk” (ELCELYX THERAPEUTICS, INC., priority 2011, dated 2018).

Tested on: atherosclerotic plaque volume
Conditions: diabetics; PERISCOPE, Nissen et al. JAMA 2008

CCC1=C(C)CN(C(=O)NCCc2ccc(S(=O)(=O)NC(=O)N[C@H]3CC[C@H](C)CC3)cc2)C1=O [Glimepiride]
change of atherosclerotic plaque volume over time: 0.73%
